Key:
Male Fisher 344 rats [1] = details: cited from earlier work
Male Fisher 344 rats [2] = test: Plasma MDA, TBA colorimetric assay with 3rd derivative spectroscopy; assay type: in vivo, rat; details: plasma
Experimental: (§1) Animals and treatment protocol: Male Fisher 344 rats (260-280 g) obtained from Charles River Laboratories (Raleigh, N.C.) were used in all experiments. The animals were housed three to a cage. Autoclaved hardwood bedding was used in solid-bottom polycarbonate cages with filter tops. Animal rooms were maintained at 20-25° C. with 35-70% relative humidity with alternating 12-hour light and dark cycles. The rats had free access to deionized, reverse-osmosis-treated water and received autoclaved NIH 31 rodent chow (Zeigler Bros., Gardners, Pa.) ad libitum. For all experiments, rats were fasted overnight and then administered intraperitoneal injections of carbon tetrachloride in canola oil. Control rats received an equal volume of canola oil. Fasting continued throughout the experiment. Rats were anesthetized with Nembutal (0.1 ml/100 g body weight) and 5 ml blood was removed from the dorsal aorta proximal to its bifurcation into the common iliac arteries.
(§2) Carbon tetrachloride (CCL4) treatment: Animals from each of the three dose groups (Control-canola oil, 120 mg/kg CCl4 i.p. and 1200 mg/kg CCl4 i.p.) were investigated at three time points (2, 7, and 16 hours after CCl4 injection). Indomethacin-pretreated rats were also investigated at the same three time points, and the meclofenamic acid-pretreated rats were investigated at one time point (7 hours). Each group consisted of five rats for each analysis, except the meclofenamic acid pretreatment group which consisted of six rats. Animal treatment, sample preparation, assessment of liver histology and serum enzyme activities are described elsewhere (Kadiiska et al., 2000, Free Radic. Biol. Med. 28: 838-845; Jackson, 1989, J. Pharmacol. Exp. Ther. 250: 9-21) and were carried out at NIEHS, Research Triangle Park, N.C.
(§3) Plasma sample preparation: Blood (5 ml) was drawn through single draw Vacutainer® needles (21 Gauge) into open Vacutainer® blood collection tubes containing heparin. The tubes were gently inverted 2-3 times for mixing and immediately placed on ice. Blood was centrifuged (2,000 rpm for 10 minutes at 4° C.) no more than 30 minutes after collection, and the plasma was collected, frozen on dry ice and stored at −70° C.
Two colorimetric-based assays, using third derivative spectroscopy, were also used to measure MDA in plasma. The TBA colorimetric assay is designed to measure free MDA and MDA-protein adducts (Schiff base), and therefore includes mild acid hydrolysis. The Bioxytech® LPO-586™ colorimetric assay is based upon the reaction of the chromogenic reagent N-methyl-2-phenylindole (NMPI) with MDA at 45° C. One molecule of free MDA combines with 2 molecules of the chromogenic agent to produce a stable chromophore with a maximal absorbance at 586 nm. In both assays, the concentration of MDA was determined with 3rd derivative spectroscopy. Both assays were developed by OXIS Research Inc., Portland, Oreg., and were performed at OXIS and at Loyola University Medical Center, Maywood, Ill.

Male Fisher 344 rats [3] = test: Urinary MDA by HPLC with spectrophotometry; assay type: in vivo, rat; details: for MDA (by HPLC with spectrophotometry): urine
Experimental: as §1
Indomethacin pretreatment: The indomethacin regimen used has been previously shown to inhibit COX activity in rats by 90% (dose of 5 mg/kg s.c. 24 hours, 12 hours, and 2 hours prior to the injection of CCl4) (Jackson, 1989, J. Pharmacol. Exp. Ther. 250: 9-21). An additional booster dose was injected 8 hours after the last injection of CCl4 for the measurements performed 16 hours after treatment with CCl4.
Meclofenamic acid pretreatment: Meclofenamic acid was injected at a dose of 5 mg/kg i.p. 12 h and 2 h prior to the injection of CCl4.
as §2
Urine sample preparation: The day prior to treatment, both experimental and control animals were placed in stainless steel metabolic cages especially designed for urine collection. For Experimental Example 2, animals were placed in metabolic cages immediately after the last injection of indomethacin or meclofenamic acid. Urine was collected (in dark vials) from the animals during the following intervals: 2 to 7 hours and 7 to 16 hours after CCl4 or canola oil (controls) treatment. Urine samples from indomethacin-pretreated rats were collected from 2 to 7 hours and 7 to 16 hours after the injection of CCl4, whereas samples from meclofenamic-acid-pretreated rats were collected only from 2 to 7 hours after the injection. All urine samples were immediately frozen on dry ice and stored at −70° C.
Urinary MDA was analyzed using high pressure liquid chromatography (HPLC). To 500 μl urine samples, 25 μl BHT and 750 μl 0.5% TBA solution were added, in this order. Samples were incubated at 60° C. for 60 minutes. After cooling, chloroform (750 μl) was added and mixed well. Following centrifugation, the aqueous layer was removed and used for HPLC analysis (column […]; mobile phase, 6:4(v/v) 0.04 M acetate buffer (pH 5.5)/MeOH; detection, 532 nm). The procedure was developed and performed by OXIS Research, Portland, Oreg.

Male Fisher 344 rats [4] = test: Plasma TBARS after CCl4; assay type: in vivo, rat
Experimental: as §1, §2, §3
Malondialdehyde (MDA) in plasma was measured using several different assays. In one assay in Experimental Example 1, free MDA and other thiobarbituric acid-reactive substances (TBARS) (MDA-protein adducts) were measured with the thiobarbituric acid (TBA assay) (Draper et al., 1993, Free Radic. Biol. Med. 15: 353-363). One ml of biological sample was combined with 2.0 ml of 1:1 TCA/TBA (30% trichloracetic acid and 0.67% thiobarbituric acid) in the presence of 200 mM butylated hydroxytoluene (BHT) for spectrophotometric readings (Porter et al., 1976, Biochim. Biophys. ACTA 441: 506-512). The incubation mixture was heated for 20 minutes in boiling water. The samples were centrifuged (2,000 rpm for 10 minutes at 4° C.), and the TBARS concentration was determined based on the absorbance at 532 nm measured with a Beckman DU-7 spectrophotometer at room temperature. Measurements were done at NIEHS, Research Triangle Park, N.C. in the case of Experimental Example 1.

Compound: ClC(Cl)(Cl)Cl [CCl4, Carbon tetrachloride]
- serum liver enzyme activities (Male Fisher 344 rats [1]; CCl4 120 and 1200 mg/kg, 2, 7, 16 h): significant increase in many of the enzyme activities studied was observed at the high dose at 2 hours and for both doses at 7 and 16 hours
- hepatic effects, histology (Male Fisher 344 rats [1]; both doses of CCl4, each time point): diffuse hepatocyte degeneration and infiltration of inflammatory cells associated with necrosis
- plasma MDA (Male Fisher 344 rats [2]; CCl4 120 mg/kg i.p., 2 h): 0.268 µM
- plasma MDA (Male Fisher 344 rats [2]; CCl4 120 mg/kg i.p., 7 h): 0.209 µM
- plasma MDA (Male Fisher 344 rats [2]; CCl4 120 mg/kg i.p., 16 h): 0.214 µM
- plasma MDA (Male Fisher 344 rats [2]; CCl4 1200 mg/kg i.p., 2 h): 0.686 µM
- plasma MDA (Male Fisher 344 rats [2]; CCl4 1200 mg/kg i.p., 7 h): 0.274 µM
- plasma MDA (Male Fisher 344 rats [2]; CCl4 1200 mg/kg i.p., 16 h): 0.156 µM
- MDA (by HPLC with spectrophotometry) (Male Fisher 344 rats [3]; CCl4 120 mg/kg i.p., 7 h): 2.01 nmol/mg creatinine
- MDA (by HPLC with spectrophotometry) (Male Fisher 344 rats [3]; CCl4 120 mg/kg i.p., 16 h): 1.54 nmol/mg creatinine
- MDA (by HPLC with spectrophotometry) (Male Fisher 344 rats [3]; CCl4 1200 mg/kg i.p., 7 h): 2.61 nmol/mg creatinine
- MDA (by HPLC with spectrophotometry) (Male Fisher 344 rats [3]; CCl4 1200 mg/kg i.p., 16 h): 2.16 nmol/mg creatinine
- increase of urinary MDA (Male Fisher 344 rats [3]; higher dose of CCl4, urine collected 7 hours after treatment): 3 fold
- TBARS (Male Fisher 344 rats [4]; CCl4 120 mg/kg i.p., 2 h): 4.1 µM
- TBARS (Male Fisher 344 rats [4]; CCl4 120 mg/kg i.p., 7 h): 10.4 µM
- TBARS (Male Fisher 344 rats [4]; CCl4 120 mg/kg i.p., 16 h): 13.0 µM
- TBARS (Male Fisher 344 rats [4]; CCl4 1200 mg/kg i.p., 2 h): 4.2 µM
- TBARS (Male Fisher 344 rats [4]; CCl4 1200 mg/kg i.p., 7 h): 9.4 µM
- TBARS (Male Fisher 344 rats [4]; CCl4 1200 mg/kg i.p., 16 h): 10.7 µM
